Columns and labels:
[1] = biological target: T1, Vascular endothelial growth factor receptor 2 (Homo sapiens, UniProt P35968); test: VEGFR2 Kinase Assay: Biochemical KDR kinase assays were performed in 96 well microtiter plates that were coated overnight with 75 ug/well of poly-Glu-Tyr (4:1) in 10 mM Phosphate Buffered Saline (PBS), pH 7.4. The coated plates were washed with 2 mls per well PBS+0.05% Tween-20 (PBS-T), blocked by incubation with PBS containing 1% BSA, then washed with 2 mls per well PBS-T prior to starting the reaction. Reactions were carried out in 100 uL reaction volumes containing 2.7 uM ATP in kinase buffer (50 mM Hepes buffer pH 7.4, 20 mM MgCl2, 0.1 mM MnCl2 and 0.2 mM Na3VO4). Test compounds were reconstituted in 100% DMSO and added to the reaction to give a final DMSO concentration of 5%. Reactions were initiated by the addition 20 ul per well of kinase buffer containing 200-300 ng purified cytoplasmic domain KDR protein (BPS Bioscience, San Diego, Calif.). Following a 15 minute incubation at 30° C., the reactions were washed 2 mls per well PBS-T. 100 ul of a monoclonal anti-phosphotyrosine antibody-peroxidase conjugate diluted 1:10,000 in PBS-T was added to the wells for 30 minutes. Following a 2 mls per well wash with PBS-Tween-20, 100 ul of 0-Phenylenediamine Dihydrochloride in phosphate-citrate buffer, containing urea hydrogen peroxide, was added to the wells for 7-10 minutes as a colorimetric substrate for the peroxidase. The reaction was terminated by the addition of 100 ul of 2.5N H2SO4 to each well and read using a microplate ELISA reader set at 492 nm.
[2] = biological target: T1, Vascular endothelial growth factor receptor 2; test: (§1) VEGFR2 Cellular Assay: Automated FLIPR (Fluorometric Imaging Plate Reader) technology was used to screen for inhibitors of VEGF induced increases in intracellular calcium levels in fluorescent dye loaded endothelial cells. HUVEC (human umbilical vein endothelial cells) (Clonetics) were seeded in 384-well fibronectin coated black-walled plates overnight @ 37° C./5% CO2. Cells were loaded with calcium indicator Fluo-4 for 45 minutes at 37° C. Cells were washed 2 times (Elx405, Biotek Instruments) to remove extracellular dye. For screening, cells were pre-incubated with test agents for 30 minutes, at a single concentration (10 uM) or at concentrations ranging from 0.0001 to 10.0 uM followed by VEGF165 stimulation (10 ng/mL). Changes in fluorescence at 516 nm were measured simultaneously in all 384 wells using a cooled CCD camera. Data were generated by determining max-min fluorescence levels for unstimulated, stimulated, and drug treated samples.; assay type: cell-based, Endothelial cell
[3] = biological target: T2, Platelet-derived growth factor receptor beta (Homo sapiens, UniProt P09619); test: as §1, with “PDGFRbeta : Automated” for “VEGFR2 Cellular Assay: Automated”, “of PDGF-induced” for “of VEGF induced”, “cells. NHDF-Ad (Normal Human Dermal Fibroblasts, Adult; Lonza)” for “cells. HUVEC (human umbilical vein endothelial cells) (Clonetics)”, “by PDGF-BB” for “by VEGF165”, “stimulation (30” for “stimulation (10”; assay type: cell-based, Endothelial cell
[4] = biological target: T2, Platelet-derived growth factor receptor beta; test: PDGFRbeta Kinase Assay: Biochemical PDGFRbeta kinase assays were performed in 96 well microtiter plates that were coated overnight with 75 ug of poly-Glu-Tyr (4:1) in 10 mM Phosphate Buffered Saline (PBS), pH 7.4. The coated plates were washed with 2 mls per well PBS+0.05% Tween-20 (PBS-T), blocked by incubation with PBS containing 1% BSA, then washed with 2 mls per wellPBS-T prior to starting the reaction. Reactions were carried out in 100 uL reaction volumes containing 36 uM ATP in kinase buffer (50 mM Hepes buffer pH 7.4, 20 mM MgCl2, 0.1 mM MnCl2 and 0.2 mM Na3VO4). Test compounds were reconstituted in 100% DMSO and added to the reaction to give a final DMSO concentration of 5%. Reactions were initiated by the addition 20 ul per well of kinase buffer containing 200-300 ng purified cytoplasmic domain PDGFR-b protein (Millipore). Following a 60 minute incubation at 30° C., the reactions were washed 2 mls per well PBS-T. 100 ul of a monoclonal anti-phosphotyrosine antibody-peroxidase conjugate diluted 1:10,000 in PBS-T was added to the wells for 30 minutes. Following a 2 mls per well wash with PBS-Tween-20, 100 ul of 0-Phenylenediamine Dihydrochloride in phosphate-citrate buffer, containing urea hydrogen peroxide, was added to the wells for 7-10 minutes as a colorimetric substrate for the peroxidase. […]

T1 sequence (P35968 whole entry, the tested form may be a part): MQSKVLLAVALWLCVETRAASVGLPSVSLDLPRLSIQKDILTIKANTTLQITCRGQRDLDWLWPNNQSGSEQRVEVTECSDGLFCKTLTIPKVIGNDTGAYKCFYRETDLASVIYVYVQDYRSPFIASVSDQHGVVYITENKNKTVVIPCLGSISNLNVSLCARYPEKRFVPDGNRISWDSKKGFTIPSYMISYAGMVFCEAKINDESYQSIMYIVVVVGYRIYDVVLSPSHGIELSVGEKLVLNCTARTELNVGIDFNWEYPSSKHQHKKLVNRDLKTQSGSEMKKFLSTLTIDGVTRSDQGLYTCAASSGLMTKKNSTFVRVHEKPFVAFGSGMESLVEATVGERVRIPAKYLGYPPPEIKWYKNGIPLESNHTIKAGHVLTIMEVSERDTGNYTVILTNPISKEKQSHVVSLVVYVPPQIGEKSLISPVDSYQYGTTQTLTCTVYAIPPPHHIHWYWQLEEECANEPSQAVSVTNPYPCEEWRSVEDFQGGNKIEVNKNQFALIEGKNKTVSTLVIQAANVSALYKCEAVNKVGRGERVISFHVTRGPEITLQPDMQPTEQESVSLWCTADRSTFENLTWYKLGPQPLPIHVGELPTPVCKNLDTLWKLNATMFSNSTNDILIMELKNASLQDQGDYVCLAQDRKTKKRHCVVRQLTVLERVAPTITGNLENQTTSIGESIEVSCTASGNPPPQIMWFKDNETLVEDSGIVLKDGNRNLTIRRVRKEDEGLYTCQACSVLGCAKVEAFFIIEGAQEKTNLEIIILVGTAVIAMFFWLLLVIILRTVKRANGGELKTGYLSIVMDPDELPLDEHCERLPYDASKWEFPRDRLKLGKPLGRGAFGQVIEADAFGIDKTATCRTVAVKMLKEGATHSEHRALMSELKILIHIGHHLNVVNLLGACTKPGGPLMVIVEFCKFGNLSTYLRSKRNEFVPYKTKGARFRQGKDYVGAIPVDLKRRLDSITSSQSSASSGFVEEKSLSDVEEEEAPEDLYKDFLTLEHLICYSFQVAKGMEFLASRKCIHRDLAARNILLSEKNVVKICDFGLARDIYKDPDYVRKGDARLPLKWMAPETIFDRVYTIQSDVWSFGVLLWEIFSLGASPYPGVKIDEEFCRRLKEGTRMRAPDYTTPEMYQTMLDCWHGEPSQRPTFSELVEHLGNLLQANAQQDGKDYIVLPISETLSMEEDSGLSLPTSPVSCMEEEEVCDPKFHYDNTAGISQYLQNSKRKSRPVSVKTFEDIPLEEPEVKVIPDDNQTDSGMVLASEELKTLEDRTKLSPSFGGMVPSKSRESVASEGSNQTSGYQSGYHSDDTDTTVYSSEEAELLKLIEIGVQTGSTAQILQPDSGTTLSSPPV
T2 sequence (P09619 whole entry): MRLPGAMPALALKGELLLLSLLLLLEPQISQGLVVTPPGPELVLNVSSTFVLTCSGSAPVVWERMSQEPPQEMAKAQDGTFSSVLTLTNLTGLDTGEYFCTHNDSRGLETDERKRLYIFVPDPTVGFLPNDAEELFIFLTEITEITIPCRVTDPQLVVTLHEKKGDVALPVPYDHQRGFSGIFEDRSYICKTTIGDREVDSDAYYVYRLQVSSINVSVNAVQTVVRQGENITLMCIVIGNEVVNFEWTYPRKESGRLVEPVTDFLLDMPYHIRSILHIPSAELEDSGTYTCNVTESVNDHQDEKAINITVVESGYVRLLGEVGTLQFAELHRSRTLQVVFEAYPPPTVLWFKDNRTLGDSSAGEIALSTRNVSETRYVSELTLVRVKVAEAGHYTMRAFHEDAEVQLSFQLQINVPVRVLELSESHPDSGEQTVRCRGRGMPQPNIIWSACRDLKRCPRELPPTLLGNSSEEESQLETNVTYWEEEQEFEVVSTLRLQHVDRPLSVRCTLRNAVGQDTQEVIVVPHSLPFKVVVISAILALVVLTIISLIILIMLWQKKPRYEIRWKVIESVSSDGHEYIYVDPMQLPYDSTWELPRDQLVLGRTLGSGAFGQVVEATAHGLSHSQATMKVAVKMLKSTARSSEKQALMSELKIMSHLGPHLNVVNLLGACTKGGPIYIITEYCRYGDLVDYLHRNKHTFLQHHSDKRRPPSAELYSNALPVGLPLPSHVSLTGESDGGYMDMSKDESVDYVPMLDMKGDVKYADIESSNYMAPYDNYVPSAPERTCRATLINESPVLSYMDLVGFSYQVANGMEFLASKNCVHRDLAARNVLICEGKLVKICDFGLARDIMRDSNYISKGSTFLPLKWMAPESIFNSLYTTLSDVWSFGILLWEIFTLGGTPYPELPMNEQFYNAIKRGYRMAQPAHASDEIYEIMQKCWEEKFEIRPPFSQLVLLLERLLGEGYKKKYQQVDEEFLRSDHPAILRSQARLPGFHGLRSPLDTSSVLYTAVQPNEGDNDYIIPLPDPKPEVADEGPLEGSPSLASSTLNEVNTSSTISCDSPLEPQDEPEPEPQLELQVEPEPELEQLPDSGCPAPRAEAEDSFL

IC50 [1] [nM] | IC50 [2] [nM] | IC50 [3] [nM] | IC50 [4] [nM] | SMILES
14 | 1 | 31 |  | Cc1ccoc1C(=O)Nc1cccc(C#Cc2cncc(C(=O)N=S(C)(=O)CCCO)c2)c1 (stereo not drawn)
3 |  |  |  | Cc1ccoc1C(=O)Nc1cccc(C#Cc2cc(C(=O)N=S(C)(=O)CC(=O)N3CC[C@H](O)C3)cnc2N)c1 (stereo partly drawn)
3 |  |  | 18 | Cc1ccoc1C(=O)Nc1cccc(C#Cc2cncc(C(=O)N=[S@@](C)(=O)CCCO)c2)c1
9 | 10 |  |  | Cc1ccoc1C(=O)Nc1cccc(C#Cc2cncc(C(=O)N=S(C)(=O)CCCN3CCN(CCOCCO)CC3)c2)c1 (stereo not drawn)
